Read-outs that look alike come from different tables or passages of the source.
T1: ENT2 (Homo sapiens, UniProt Q14542)
T1 sequence (Q14542 1-456): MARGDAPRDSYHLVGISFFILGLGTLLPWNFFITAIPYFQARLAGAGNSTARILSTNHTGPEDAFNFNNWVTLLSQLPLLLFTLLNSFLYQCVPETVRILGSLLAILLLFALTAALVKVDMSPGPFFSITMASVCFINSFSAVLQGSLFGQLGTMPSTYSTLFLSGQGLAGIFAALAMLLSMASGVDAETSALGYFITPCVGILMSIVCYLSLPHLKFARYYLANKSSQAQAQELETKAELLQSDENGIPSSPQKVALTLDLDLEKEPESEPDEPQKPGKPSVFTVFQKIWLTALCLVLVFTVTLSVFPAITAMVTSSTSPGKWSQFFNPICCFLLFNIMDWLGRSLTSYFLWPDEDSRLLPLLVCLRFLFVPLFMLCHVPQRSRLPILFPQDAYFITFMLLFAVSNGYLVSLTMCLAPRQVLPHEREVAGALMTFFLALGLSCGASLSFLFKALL

T2: hENT4 (Homo sapiens, UniProt Q7RTT9)
T2 sequence (Q7RTT9 1-530): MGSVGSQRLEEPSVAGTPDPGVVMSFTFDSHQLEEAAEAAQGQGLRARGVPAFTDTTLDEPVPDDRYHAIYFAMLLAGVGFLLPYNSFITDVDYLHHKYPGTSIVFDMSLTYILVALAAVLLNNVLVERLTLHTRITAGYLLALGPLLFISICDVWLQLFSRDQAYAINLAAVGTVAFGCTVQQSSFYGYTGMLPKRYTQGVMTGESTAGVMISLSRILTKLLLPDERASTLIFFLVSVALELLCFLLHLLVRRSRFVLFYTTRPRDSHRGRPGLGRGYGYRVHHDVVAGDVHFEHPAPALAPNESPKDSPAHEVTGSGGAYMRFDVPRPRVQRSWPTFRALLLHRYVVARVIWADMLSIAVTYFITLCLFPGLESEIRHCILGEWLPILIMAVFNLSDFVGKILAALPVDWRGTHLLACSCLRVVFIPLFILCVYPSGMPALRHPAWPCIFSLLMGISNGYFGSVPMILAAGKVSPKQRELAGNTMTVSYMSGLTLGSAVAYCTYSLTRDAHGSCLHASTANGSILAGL


Key:
ENT2 [1] = target: T1, ENT2; conditions: Table 1, different ring systems at the 4- and 8-positions; cited from earlier work
hENT4 [2] = target: T2, hENT4; conditions: Table 1, different ring systems at the 4- and 8-positions; cited from earlier work
ENT2 [3] = target: T1, ENT2; conditions: Ward et al. 2000; SenGupta et al. 2002; cited from earlier work
hENT4 [4] = target: T2, hENT4; conditions: cited from earlier work
ENT2 [5] = target: T1, ENT2; conditions: ENT2-dependent transduction; cited from earlier work
[6] = tested on: TNBC brain metastases (231-BR cells); assay type: in vivo; conditions: 20 mg/kg tail vein 3x/week for 4 weeks
Experimental: TNBC brain metastases were generated in mice by intracardiac injection of luciferase-expressing 231-BR cells. Mice were treated with tail vein injection of control (PBS) or h3E10 di-scFv (20 mg/kg) 3×/week for 4 weeks, and brain metastases were tracked by IVIS.

[7] = tested on: hCMEC/D3 Transwell filter BBB model; test: Transwell filter model of the human BBB (hCMEC/D3 and normal human astrocytes); assay type: in vitro ADME; conditions: basolateral chamber one hour after addition to apical chamber, western blot

Row | Molecule | IC50 (ENT2 [1]) | IC50 (hENT4 [2]) | IC50 (ENT2 [3]) | inhibition of hENT4 (in words) (hENT4 [4]) | inhibition of intranuclear transduction of mouse 3E10 Fv (ENT2 [5]) | growth of brain metastases (radiance by IVIS) [6] | median survival ([6]; control 38 days, P<0.02) | transport of h3E10 di-scFv across Transwell filter BBB model [7]
1 | O=[N+]([O-])c1ccc(CSc2ncnc3c2ncn3[C@@H]2O[C@H](CO)[C@@H](O)[C@H]2O)cc1 [NBMPR] | 1350 nM | 2330 nM | 2800 nM | moderate inhibitors | inhibited |  |  | 
2 | h3E10 di-scFv: modified, humanized 3E10 lupus autoantibody di-scFv, SEQ ID NO:70, Variant 13 (protein) scFv: DIQMTQSPSSLSASLGDRATITCRASKTVSTSSYSYMHWYQQKPGQPPKLLIKYASYLESGVPSRFSGSGSGTDFTLTISSLQPEDAATYYCQHSREFPWTFGGGTKVEIKRADAAPGGGGSGGGGSGGGGSEVQLVESGGGLVQPGGSLRLSCAASGFTFSNYGMHWVRQAPGKGLEWVSYISSGSSTIYYADSVKGRFTISRDNAKNSLYLQMNSLRAEDTAVYYCARRGLLLDYWGQGTTVTVSSASTKGPSVFPLAPLESSGSDIQMTQSPSSLSASLGDRATITCRASKTVSTSSYSYMHWYQQKPGQPPKLLIKYASYLESGVPSRFSGSGSGTDFTLTISSLQPEDAATYYCQHSREFPWTFGGGTKVEIKRADAAPGGGGSGGGGSGGGGSEVQLVESGGGLVQPGGSLRLSCAASGFTFSNYGMHWVRQAPGKGLEWVSYISSGSSTIYYADSVKGRFTISRDNAKNSLYLQMNSLRAEDTAVYYCARRGLLLDYWGQGTTVTVSS |  |  |  |  |  | Suppresses Tumor Growth | 52 days | crosses
